Patent US20170007727A1, “METHODS OF IMAGING WITH Ga-68 LABELED MOLECULES” (Immunomedics, Inc., priority 2015, published 2017)
Each block holds one molecule with its values, some of them ahead of it. Numbered stars: 1 amine (or outer) side, 2 acyl side, 3 side chain; on linkers, the order of the positions; unused ones are H or OH. Square brackets hold non-standard residues; d marks the D form. Side chains are listed from the residue outwards. Peptide text beside a SMILES is read from it. * marks the point of attachment. DOTA = O=C(O)CN1CCN(CC(=O)O)CCN(CC(=O)*)CCN(CC(=O)O)CC1; NH(2-(imidazol-4-yl)ethyl) = c1ncc(CCN*)[nH]1; Suc = O=C(CCC(=O)[*:2])[*:1]

What was measured:
[1] = tested on: CEA-expressing LS174T tumors; details: mouse, in vivo
Procedure: One or two hours after the injection of the radiolabeled peptide, PET/CT images were acquired and the biodistribution of the radiolabeled peptide was determined. Uptake in the LS174T tumor was compared with that in an s.c. CEA-negative SK-RC 52 tumor.
Experiments were performed in male nude BALB/c mice (6-8 weeks old), weighing 20-25 grams. Mice received a subcutaneous injection with 0.2 mL of a suspension of 1×10^6 LS174T-cells, a CEA-expressing human colon carcinoma cell line (American Type Culture Collection, Rockville, Md., USA).
The percentage-injected dose per gram tissue (% ID/g) was calculated.
LS174T tumors were pretargeted by injecting 1.0, 2.5, 5.0 or 10.0 nmol TF2 (160, 400, 800 or 1600 μg).
In the right flank an s.c. LS174T tumor was induced, while at the same time in the same mice 1×10^6 SK-RC 52 cells were inoculated in the left flank to induce a CEA-negative tumor.
Mice were fasted during 10 hours prior to the injection and anaesthetized and kept warm at 37° C. until euthanasia, 1 h postinjection.

RIIα dimers = RIIα dimers (Homo sapiens, UniProt P13861); details: read-out: affinity for RIIα dimers; cited from earlier work
[2] = biological target: somatostatin receptors on AR42J cells (rat); assay: apparent IC50, competitive binding on AR42J cells against 111In(DTPA-octreotide), RT 3 h
[3] = complexed with ^177Lu or ^205/206Bi; cited from earlier work
AR42J tumors = assay: Biodistribution in mice with s.c. AR42J tumors; type: in vivo, nude BALB/c mice; details: 2 h p.i.
Procedure: Male nude BALB/c mice (6-8 weeks) were injected subcutaneously in the right flank with 0.2 mL AR42J cell suspension of 10^7 cells/mL. Approximately two weeks after tumor cell inoculation when tumors were 5-8 mm in diameter, 370 kBq ^18F- or ^68Ga-labeled IMP 466 was administered intravenously (n=5). Separate groups (n=5) were injected with a 1,000-fold molar excess of unlabeled IMP 466. One group of three mice was injected with unchelated [Al^18F]. All mice were killed by CO2/O2 asphyxiation 2 h post-injection (p.i.). Organs of interest were collected, weighed and counted in a gamma counter. The percentage of the injected dose per gram tissue (% ID/g) was calculated for each tissue. The animal experiments were approved by the local animal welfare committee and performed according to national regulations.

[4] = Stability of ^18F-labeled IMP 466 in human serum (RP-HPLC); type: in vitro ADME; details: 37° C., 4 h
Procedure: Ten μL of the ^18F-labeled IMP 466 was incubated in 500 μL of freshly collected human serum and incubated for 4 h at 37° C. Acetonitrile was added and the mixture was vortexed followed by centrifugation at 1000×g for 5 min to precipitate serum proteins. The supernatant was analyzed on RP-HPLC as described above.

somatostatin receptors on AR42J cells (rat), sequence (P30680 whole entry): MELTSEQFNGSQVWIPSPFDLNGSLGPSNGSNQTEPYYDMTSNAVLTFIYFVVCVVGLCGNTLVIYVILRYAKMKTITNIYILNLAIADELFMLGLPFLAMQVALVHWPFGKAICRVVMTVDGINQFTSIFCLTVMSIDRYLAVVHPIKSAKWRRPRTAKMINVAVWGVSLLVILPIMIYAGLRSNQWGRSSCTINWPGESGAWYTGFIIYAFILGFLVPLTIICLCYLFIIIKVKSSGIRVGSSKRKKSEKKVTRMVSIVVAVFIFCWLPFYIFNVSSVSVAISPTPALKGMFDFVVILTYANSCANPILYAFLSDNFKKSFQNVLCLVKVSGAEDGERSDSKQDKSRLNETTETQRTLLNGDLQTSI
RIIα dimers, sequence (P13861 whole entry): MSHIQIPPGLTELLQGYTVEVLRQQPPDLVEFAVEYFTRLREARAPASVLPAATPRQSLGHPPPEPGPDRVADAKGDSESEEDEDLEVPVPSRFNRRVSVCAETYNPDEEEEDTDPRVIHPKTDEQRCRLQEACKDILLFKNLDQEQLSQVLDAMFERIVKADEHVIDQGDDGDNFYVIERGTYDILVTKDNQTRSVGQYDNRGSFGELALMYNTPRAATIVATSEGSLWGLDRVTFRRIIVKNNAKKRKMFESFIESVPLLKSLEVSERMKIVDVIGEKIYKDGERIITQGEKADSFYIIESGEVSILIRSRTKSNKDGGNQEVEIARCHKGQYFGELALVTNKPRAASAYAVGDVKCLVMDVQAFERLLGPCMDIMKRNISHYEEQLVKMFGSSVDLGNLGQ

- time to maximum accretion in the tumor [1]: ≤ 1 h
Molecule: NC(=O)[C@@H](CCCCNC(=O)CNC(=O)CCC(=O)NCCc1c[nH]cn1)NC(=O)[C@@H](CCC(=O)O)NC(=O)[C@@H](CCCCNC(=O)CNC(=O)CCC(=O)NCCc1c[nH]cn1)NC(=O)[C@@H](Cc1ccc(O)cc1)NC(=O)CN1CCN(CC(=O)O)CCN(CC(=O)O)CCN(CC(=O)O)CC1 [IMP 288, DOTA-D-Tyr-D-Lys(HSG)-D-Glu-D-Lys(HSG)-NH2] ({DOTA}-[dY][dK]([Gly-Suc-NH(2-(imidazol-4-yl)ethyl)])[dE][dK]([Gly-Suc-NH(2-(imidazol-4-yl)ethyl)])-NH2)

Molecule: 17 residue synthetic AD, SEQ ID NO: 8 QIEYLAKQIVDNAIQQA [AKAP-IS]
- Kd (RIIα dimers): 0.4 nM

- IC50 [2]: 3.6 nM
Molecule: Al19F(IMP 466): NOTA-D-Phe-Cys-Phe-D-Trp-Lys-Thr-Cys-Throl complexed with aluminium fluoride (19F) (peptide)

- IC50 [2]: 6.3 nM
Molecule: 115In(DTPA-octreotide) (peptide)

- IC50 [2]: 13 nM
Molecule: 69Ga(IMP 466): NOTA-D-Phe-Cys-Phe-D-Trp-Lys-Thr-Cys-Throl complexed with 69Ga (peptide)

Molecule: O=C(O)CN1CCN(CC(=O)O)CCN(CC(Cc2ccc([N+](=O)[O-])cc2)N(CC(=O)O)CC(=O)O)CC1 (stereo not drawn) [C-NETA]
- stability in serum [3]: up to 14 days

- uptake in the bone [1]: 50.9±11.4 % ID/g
- bone uptake (AR42J tumors): 36.9±5.0 % ID/g
Molecule: [18F][Al+2] [[Al^18F]]

- release of ^18F after incubation in human serum [4]: did not show release of ^18F
Molecule: C[C@@H](O)[C@@H]1NC(=O)[C@H](CCCCN)NC(=O)[C@@H](Cc2c[nH]c3ccccc23)NC(=O)[C@H](Cc2ccccc2)NC(=O)[C@@H](NC(=O)[C@@H](Cc2ccccc2)NC(=O)CN2CCN(CC(=O)O)CCN(CC(=O)O)CC2)CSSC[C@@H](C(=O)N[C@H](CO)[C@@H](C)O)NC1=O [Al^18F(IMP 466)]
